# Measurements from ChEMBL document CHEMBL5465560, “Selectivity Literature for EUbOPEN Chemogenomic Library” (2024).
# How the values were obtained:
# [1] = target: Glycogen synthase kinase-3 alpha (Homo sapiens, UniProt P49840); settings: at 10 µM
# [2] = target: Macrophage-stimulating protein receptor (Homo sapiens, UniProt Q04912); assay: Selectivity interaction (Ambit KINOMEscan and KiNATiv profiling in Jurkat cells) EUB0000090b MST1R; type: cell-based; settings: at 1 µM
# [3] = target: T1, Ephrin type-A receptor 8 (Homo sapiens) (UniProt P29322); assay: Selectivity interaction (Ambit KINOMEscan and KiNATiv profiling in Jurkat cells) EUB0000090b EPHA8; type: cell-based; settings: at 1 µM
# T1 sequence (whole entry): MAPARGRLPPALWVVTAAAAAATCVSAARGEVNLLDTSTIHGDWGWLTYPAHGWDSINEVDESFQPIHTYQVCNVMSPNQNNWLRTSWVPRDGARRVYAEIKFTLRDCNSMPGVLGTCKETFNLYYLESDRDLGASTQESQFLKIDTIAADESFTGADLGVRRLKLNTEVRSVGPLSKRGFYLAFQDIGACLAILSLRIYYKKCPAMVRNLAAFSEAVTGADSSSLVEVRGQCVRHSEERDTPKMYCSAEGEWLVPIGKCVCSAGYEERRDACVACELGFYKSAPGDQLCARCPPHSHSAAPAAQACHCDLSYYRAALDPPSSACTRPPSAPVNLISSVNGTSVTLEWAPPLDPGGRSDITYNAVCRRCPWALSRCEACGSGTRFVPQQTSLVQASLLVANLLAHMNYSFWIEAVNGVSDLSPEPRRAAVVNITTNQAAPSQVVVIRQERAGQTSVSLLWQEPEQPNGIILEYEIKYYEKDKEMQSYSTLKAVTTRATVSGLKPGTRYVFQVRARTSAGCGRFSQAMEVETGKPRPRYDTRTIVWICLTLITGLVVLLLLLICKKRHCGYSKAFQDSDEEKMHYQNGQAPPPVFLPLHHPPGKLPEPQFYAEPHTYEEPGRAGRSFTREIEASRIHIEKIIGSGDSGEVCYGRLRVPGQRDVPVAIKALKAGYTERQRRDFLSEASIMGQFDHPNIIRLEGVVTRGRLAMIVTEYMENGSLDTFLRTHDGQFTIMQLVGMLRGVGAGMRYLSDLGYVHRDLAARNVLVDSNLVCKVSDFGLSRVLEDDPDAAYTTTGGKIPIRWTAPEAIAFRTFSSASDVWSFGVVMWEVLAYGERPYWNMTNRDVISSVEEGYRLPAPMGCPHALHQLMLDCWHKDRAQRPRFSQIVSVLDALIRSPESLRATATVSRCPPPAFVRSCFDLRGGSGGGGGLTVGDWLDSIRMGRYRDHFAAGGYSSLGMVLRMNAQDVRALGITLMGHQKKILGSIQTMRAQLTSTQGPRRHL
# [4] = target: T2, Tyrosine-protein kinase JAK3 (Homo sapiens, UniProt P52333)
# T2 sequence (P52333 whole entry): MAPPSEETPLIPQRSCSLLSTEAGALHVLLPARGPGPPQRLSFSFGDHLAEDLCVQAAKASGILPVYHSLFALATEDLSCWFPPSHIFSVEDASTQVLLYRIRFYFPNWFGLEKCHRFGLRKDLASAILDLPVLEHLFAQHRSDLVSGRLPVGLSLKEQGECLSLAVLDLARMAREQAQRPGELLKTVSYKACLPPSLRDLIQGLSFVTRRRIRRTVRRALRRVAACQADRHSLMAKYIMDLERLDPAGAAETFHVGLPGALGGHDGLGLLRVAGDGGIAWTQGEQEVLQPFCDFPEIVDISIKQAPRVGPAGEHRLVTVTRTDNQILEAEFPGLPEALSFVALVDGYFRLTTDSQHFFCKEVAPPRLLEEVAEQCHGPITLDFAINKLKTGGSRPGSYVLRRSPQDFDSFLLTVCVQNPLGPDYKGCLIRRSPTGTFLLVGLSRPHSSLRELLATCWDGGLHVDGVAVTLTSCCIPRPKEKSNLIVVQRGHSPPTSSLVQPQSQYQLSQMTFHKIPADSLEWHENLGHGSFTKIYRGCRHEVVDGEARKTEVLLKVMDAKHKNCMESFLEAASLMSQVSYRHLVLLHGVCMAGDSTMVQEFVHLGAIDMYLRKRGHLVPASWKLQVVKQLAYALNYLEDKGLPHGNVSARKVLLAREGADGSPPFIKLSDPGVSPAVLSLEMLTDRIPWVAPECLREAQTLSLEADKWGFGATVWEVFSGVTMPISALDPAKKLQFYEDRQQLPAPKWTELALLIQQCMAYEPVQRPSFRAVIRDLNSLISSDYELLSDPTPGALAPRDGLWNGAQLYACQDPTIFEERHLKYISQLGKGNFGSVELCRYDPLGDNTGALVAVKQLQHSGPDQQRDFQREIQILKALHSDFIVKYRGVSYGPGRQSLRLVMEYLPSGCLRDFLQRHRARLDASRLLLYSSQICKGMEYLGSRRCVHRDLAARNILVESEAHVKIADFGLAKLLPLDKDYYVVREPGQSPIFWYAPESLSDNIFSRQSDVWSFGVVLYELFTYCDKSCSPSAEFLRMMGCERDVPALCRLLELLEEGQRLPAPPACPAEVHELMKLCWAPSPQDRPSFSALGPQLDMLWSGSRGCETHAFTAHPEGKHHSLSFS
# [5] = tested on: eIF-2-alpha kinase GCN2 (Homo sapiens), Q9P2K8 [S808G]; assay: Selectivity interaction (KinomeScan (DiscoverX)) EUB0001619a EIF2AK4; settings: at 1 µM
# Sequence of eIF-2-alpha kinase GCN2 (Homo sapiens), Q9P2K8 [S808G] (Q9P2K8 whole entry S808G): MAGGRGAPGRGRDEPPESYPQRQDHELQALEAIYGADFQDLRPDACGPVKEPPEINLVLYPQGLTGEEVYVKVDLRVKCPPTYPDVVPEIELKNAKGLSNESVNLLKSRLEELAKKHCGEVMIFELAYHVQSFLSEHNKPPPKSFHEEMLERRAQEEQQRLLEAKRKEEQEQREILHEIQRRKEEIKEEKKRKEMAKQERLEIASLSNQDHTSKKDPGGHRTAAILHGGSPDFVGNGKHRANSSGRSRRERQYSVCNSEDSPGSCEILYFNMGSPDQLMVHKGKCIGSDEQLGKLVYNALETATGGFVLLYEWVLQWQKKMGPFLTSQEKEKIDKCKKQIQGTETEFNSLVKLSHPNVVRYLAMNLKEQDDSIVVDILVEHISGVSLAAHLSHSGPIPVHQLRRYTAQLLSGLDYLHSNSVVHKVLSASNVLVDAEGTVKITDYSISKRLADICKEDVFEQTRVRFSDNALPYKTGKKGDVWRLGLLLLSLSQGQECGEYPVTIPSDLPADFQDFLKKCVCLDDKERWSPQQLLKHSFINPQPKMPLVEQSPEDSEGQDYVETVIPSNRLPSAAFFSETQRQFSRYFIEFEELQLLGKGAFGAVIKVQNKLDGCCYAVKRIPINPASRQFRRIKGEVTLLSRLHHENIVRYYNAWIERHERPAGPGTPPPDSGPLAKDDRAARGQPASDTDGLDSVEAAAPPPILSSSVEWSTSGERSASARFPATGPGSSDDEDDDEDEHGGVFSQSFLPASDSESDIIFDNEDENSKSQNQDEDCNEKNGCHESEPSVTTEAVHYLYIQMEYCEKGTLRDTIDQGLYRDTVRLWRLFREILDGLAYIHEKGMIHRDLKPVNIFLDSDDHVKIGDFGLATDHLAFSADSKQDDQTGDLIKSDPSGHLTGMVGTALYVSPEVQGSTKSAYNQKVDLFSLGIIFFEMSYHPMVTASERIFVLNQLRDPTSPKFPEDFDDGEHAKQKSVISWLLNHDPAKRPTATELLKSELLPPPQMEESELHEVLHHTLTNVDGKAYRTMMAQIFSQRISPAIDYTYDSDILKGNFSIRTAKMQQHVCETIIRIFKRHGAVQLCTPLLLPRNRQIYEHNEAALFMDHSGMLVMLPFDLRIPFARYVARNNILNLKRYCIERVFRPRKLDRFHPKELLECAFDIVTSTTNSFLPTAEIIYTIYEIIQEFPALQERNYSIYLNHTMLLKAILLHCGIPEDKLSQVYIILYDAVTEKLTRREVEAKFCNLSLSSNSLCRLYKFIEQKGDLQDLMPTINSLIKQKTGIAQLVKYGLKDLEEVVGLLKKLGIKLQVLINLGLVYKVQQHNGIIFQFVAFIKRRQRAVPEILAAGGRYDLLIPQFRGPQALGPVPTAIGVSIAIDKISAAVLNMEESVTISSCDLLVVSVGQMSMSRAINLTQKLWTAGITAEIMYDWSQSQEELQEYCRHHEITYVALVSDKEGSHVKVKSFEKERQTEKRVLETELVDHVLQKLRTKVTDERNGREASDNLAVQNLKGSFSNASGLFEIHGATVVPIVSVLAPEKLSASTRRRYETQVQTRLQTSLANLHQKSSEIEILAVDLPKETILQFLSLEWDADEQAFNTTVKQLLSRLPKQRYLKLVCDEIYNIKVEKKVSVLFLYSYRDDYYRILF
# [6] = target: T3, Serine/threonine-protein kinase DCLK3 (Homo sapiens) (UniProt Q9C098); assay: Selectivity interaction (KinomeScan (DiscoverX)) EUB0000655a DCLK3; settings: at 10 µM
# T3 sequence (whole entry): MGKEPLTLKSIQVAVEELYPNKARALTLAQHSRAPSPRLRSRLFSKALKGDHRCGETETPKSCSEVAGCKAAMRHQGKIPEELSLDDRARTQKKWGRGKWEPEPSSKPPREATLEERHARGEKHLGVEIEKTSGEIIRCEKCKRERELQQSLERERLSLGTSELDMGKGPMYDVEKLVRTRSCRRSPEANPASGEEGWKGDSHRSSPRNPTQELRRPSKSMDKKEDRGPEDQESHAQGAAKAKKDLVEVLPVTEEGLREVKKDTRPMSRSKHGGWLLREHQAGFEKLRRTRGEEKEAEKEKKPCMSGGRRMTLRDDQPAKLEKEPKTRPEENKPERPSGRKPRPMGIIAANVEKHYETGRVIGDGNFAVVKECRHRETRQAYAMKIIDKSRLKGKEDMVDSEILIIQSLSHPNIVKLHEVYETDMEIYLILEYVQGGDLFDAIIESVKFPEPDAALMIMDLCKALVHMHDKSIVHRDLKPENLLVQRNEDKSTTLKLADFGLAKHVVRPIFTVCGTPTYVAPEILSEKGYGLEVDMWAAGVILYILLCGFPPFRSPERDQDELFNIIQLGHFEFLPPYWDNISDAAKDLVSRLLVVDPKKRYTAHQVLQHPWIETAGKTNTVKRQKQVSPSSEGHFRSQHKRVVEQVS
# Sequence of Glycogen synthase kinase-3 alpha (P49840 2-483 limits assumed): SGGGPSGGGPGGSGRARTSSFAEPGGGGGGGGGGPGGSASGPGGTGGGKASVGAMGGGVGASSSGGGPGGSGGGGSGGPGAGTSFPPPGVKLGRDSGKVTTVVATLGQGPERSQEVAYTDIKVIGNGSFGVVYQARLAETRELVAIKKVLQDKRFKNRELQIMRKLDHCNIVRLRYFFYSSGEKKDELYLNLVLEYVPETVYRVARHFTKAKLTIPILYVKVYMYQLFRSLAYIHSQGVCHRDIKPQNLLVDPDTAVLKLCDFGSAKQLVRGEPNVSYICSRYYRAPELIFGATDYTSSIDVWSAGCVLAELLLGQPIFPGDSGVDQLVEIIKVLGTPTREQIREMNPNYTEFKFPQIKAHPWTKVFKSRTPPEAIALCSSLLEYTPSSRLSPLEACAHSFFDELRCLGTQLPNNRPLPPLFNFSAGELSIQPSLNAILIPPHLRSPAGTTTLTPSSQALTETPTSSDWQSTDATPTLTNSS
# Sequence of Macrophage-stimulating protein receptor (Q04912 25-304 limits assumed): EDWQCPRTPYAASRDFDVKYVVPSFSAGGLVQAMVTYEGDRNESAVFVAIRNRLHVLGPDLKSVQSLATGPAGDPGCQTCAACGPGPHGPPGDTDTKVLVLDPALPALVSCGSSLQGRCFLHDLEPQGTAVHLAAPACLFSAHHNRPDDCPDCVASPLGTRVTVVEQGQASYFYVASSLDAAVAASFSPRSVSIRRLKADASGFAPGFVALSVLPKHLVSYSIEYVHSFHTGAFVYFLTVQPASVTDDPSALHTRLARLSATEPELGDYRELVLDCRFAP
# Sequence of Macrophage-stimulating protein receptor (Q04912 310-1400 limits assumed): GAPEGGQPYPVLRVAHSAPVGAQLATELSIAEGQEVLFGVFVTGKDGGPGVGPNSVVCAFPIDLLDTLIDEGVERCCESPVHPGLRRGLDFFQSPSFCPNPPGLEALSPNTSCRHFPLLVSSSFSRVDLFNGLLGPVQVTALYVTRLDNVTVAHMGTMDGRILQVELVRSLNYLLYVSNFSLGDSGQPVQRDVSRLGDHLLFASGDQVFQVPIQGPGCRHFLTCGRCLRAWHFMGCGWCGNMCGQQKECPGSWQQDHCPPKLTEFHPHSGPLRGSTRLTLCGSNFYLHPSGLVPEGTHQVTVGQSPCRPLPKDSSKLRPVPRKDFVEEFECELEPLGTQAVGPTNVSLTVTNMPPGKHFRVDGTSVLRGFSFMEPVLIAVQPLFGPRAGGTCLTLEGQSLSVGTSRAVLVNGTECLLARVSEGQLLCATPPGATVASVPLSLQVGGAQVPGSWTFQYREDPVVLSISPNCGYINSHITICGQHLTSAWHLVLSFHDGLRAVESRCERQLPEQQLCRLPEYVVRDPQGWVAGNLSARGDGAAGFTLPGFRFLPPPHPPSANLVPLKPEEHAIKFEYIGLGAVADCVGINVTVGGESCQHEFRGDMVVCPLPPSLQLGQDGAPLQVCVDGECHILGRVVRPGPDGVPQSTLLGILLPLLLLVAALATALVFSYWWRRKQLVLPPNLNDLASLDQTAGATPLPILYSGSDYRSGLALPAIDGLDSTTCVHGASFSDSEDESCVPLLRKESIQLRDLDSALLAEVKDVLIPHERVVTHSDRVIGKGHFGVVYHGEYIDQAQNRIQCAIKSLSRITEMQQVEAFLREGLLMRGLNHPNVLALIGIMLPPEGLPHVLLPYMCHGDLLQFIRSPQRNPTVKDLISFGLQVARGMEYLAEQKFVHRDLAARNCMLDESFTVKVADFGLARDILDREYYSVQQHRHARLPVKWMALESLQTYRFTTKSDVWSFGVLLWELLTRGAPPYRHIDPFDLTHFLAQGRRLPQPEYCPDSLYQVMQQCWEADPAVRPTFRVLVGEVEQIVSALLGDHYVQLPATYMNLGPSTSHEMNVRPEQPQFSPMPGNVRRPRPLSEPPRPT
compound,measurement,setting,value
CCN(CC)CCCCNc1ncc2cc(-c3cc(OC)cc(OC)c3)c(NC(=O)NC(C)(C)C)nc2n1,% of control,[1],100%
CN(C)C/C=C/C(=O)Nc1ccc(C(=O)N2CCCC(Nc3ncc(Cl)c(-c4c[nH]c5ccccc45)n3)C2)cc1 (stereo unspecified),% of control,[2],90%
same,% of control,[3],89%
CCc1cccc(CC)c1NC(=O)c1nn(C)c2c1CCc1cnc(Nc3ccc(C(=O)NC4CCN(C)CC4)cc3OC(F)(F)F)nc1-2,IC50,[4],> 10 µM
N#Cc1cccc(-c2c[nH]c3ncnc(N4CCOCC4)c23)c1,% of control,[5],100%
CN(C)CCOc1ccc(-c2nc(-c3ccncc3)c(-c3ccc4c(c3)CC/C4=N\O)[nH]2)cc1,% of control,[6],89%
